Assay results as given in patent publication US20180368410A1, “MICROBIOCIDAL OXADIAZOLE DERIVATIVES” (SYNGENTA PARTICIPATIONS AG, priority 2015, published 2018).

What was measured:
[1] = test system: Puccinia recondita f. Sp. Tritici; test: Puccinia recondita f. sp. tritici / wheat / leaf disc preventative (brown rust); format: in vivo, Puccinia recondita f. sp. tritici on wheat cv. Kanzler; conditions: foliar, 200 ppm in the applied formulation, inoculated 1 day after application, assessed 7 to 9 days after application, vs untreated control leaf disks, read-out: disease control
Experimental: Leaf disks or leaf segments of various plant species are cut from plants grown in a greenhouse. The cut leaf disks or segments are placed in multiwell plates (24-well format) onto water agar. The leaf disks are sprayed with a test solution before (preventative) or after (curative) inoculation. Compounds to be tested are prepared as DMSO solutions (max. 10 mg/ml) which are diluted to the appropriate concentration with 0.025% Tween20 just before spraying. The inoculated leaf disks or segments are incubated under defined conditions (temperature, relative humidity, light, etc.) according to the respective test system. A single evaluation of disease level is carried out 3 to 14 days after inoculation, depending on the pathosystem. Percent disease control relative to the untreated check leaf disks or segments is then calculated. Wheat leaf segments cv. Kanzler were placed on agar in multiwell plates (24-well format) and sprayed with the formulated test compound diluted in water. The leaf disks were inoculated with a spore suspension of the fungus 1 day after application. The inoculated leaf segments were incubated at 19′C and 75% relative humidity (rh) under a light regime of 12 hours light/12 hours darkness in a climate cabinet and the activity of a compound was assessed as percent disease control compared to untreated when an appropriate level of disease damage appears in untreated check leaf segments (7 to 9 days after application). The following compounds at 200 ppm in the applied formulation give at least 80% disease control in this test when compared to untreated control leaf disks under the same conditions, which show extensive disease development.

Phakopsora pachyrhizi = Phakopsora pachyrhizi / soybean / leaf disc preventative (Asian soybean rust); format: in vivo, Phakopsora pachyrhizi on soybean; conditions: foliar, 200 ppm in the applied formulation, inoculated one day after application, assessed 12 to 14 days after application, vs untreated control leaf disks, read-out: disease control
Experimental: (§1) Leaf disks or leaf segments of various plant species are cut from plants grown in a greenhouse. The cut leaf disks or segments are placed in multiwell plates (24-well format) onto water agar. The leaf disks are sprayed with a test solution before (preventative) or after (curative) inoculation. Compounds to be tested are prepared as DMSO solutions (max. 10 mg/ml) which are diluted to the appropriate concentration with 0.025% Tween20 just before spraying. The inoculated leaf disks or segments are incubated under defined conditions (temperature, relative humidity, light, etc.) according to the respective test system. A single evaluation of disease level is carried out 3 to 14 days after inoculation, depending on the pathosystem. Percent disease control relative to the untreated check leaf disks or segments is then calculated.
Soybean leaf disks are placed on water agar in multiwell plates (24-well format) and sprayed with the formulated test compound diluted in water. One day after application leaf discs are inoculated by spraying a spore suspension on the lower leaf surface. After an incubation period in a climate cabinet of 24-36 hours in darkness at 20° C. and 75% rh leaf disc are kept at 20° C. with 12 h light/day and 75% rh. The activity of a compound is assessed as percent disease control compared to untreated when an appropriate level of disease damage appears in untreated check leaf disks (12 to 14 days after application).
(§2) The following compounds at 200 ppm in the applied formulation give at least 80% disease control in this test when compared to untreated control leaf disks under the same conditions, which show extensive disease development.

[2] = test system: Glomerella Lacenarium (Colletotrichum lacenarium); test: Glomerella lagenarium (Colletotrichum lagenarium) liquid culture / cucumber / preventative (anthracnose); format: cell-based; conditions: 20 ppm in the applied formulation, liquid culture in PDB, 24° C., inhibition of growth measured photometrically 3 to 4 days after application, vs untreated control, read-out: disease control
Experimental: Mycelia fragments or conidia suspensions of a fungus prepared either freshly from liquid cultures of the fungus or from cryogenic storage, are directly mixed into nutrient broth. DMSO solutions of the test compound (max. 10 mg/ml) are diluted with 0.025% Tween20 by a factor of 50 and 10 μl of this solution is pipetted into a microtiter plate (96-well format). The nutrient broth containing the fungal spores/mycelia fragments is then added to give an end concentration of the tested compound. The test plates are incubated in the dark at 24° C. and 96% relative humidity. The inhibition of fungal growth is determined photometrically after 2 to 7 days, depending on the pathosystem, and percent antifungal activity relative to the untreated check is calculated.
Conidia of the fungus from cryogenic storage are directly mixed into nutrient broth (PDB—potato dextrose broth). After placing a (DMSO) solution of test compound into a microtiter plate (96-well format), the nutrient broth containing the fungal spores is added. The test plates are incubated at 24° C. and the inhibition of growth is measured photometrically 3 to 4 days after application.
The following compounds at 20 ppm in the applied formulation give at least 80% disease control in this test when compared to untreated control under the same conditions, which show extensive disease development.

[3] = test system: Puccinia recondita f. Sp. Triticil; test: Puccinia recondita f. sp. tritici / wheat / leaf disc curative (brown rust); format: in vivo, Puccinia recondita f. sp. tritici on wheat cv. Kanzler; conditions: foliar, 200 ppm in the applied formulation, applied 1 day after inoculation, assessed 6 to 8 days after application, vs untreated control leaf disks, read-out: disease control
Experimental: as §1
Wheat leaf segments cv. Kanzler are placed on agar in multiwell plates (24-well format). The leaf segments are then inoculated with a spore suspension of the fungus. Plates were stored in darkness at 19° C. and 75% relative humidity. The formulated test compound diluted in water was applied 1 day after inoculation. The leaf segments were incubated at 19° C. and 75% relative humidity under a light regime of 12 hours light/12 hours darkness in a climate cabinet and the activity of a compound was assessed as percent disease control compared to untreated when an appropriate level of disease damage appears in untreated check leaf segments (6 to 8 days after application).
as §2

`O=C(NCc1ccc(-c2noc(C(F)(F)F)n2)cc1)C1CCCCC1` [Compound 1.10, N-[[4-[5-(trifluoromethyl)-1,2,4-oxadiazol-3-yl]phenyl]methyl] cyclohexanecarboxamide] was tested, and the pest or weed control at 200 ppm [1] was ≥ 80%, the pest or weed control at 200 ppm (Phakopsora pachyrhizi) was ≥ 80% and the inhibition of growth at 20 ppm [2] was ≥ 80%.
In the case of `Cc1cc(C(=O)NCc2ccc(-c3noc(C(F)(F)F)n3)cc2)c(C)o1` [Compound 1.41, 2,5-dimethyl-N-[[4-[5-(trifluoromethyl)-1,2,4-oxadiazol-3-yl]phenyl]methyl]furan-3-carboxamide], the pest or weed control at 200 ppm [1] is reported as ≥ 80% and the pest or weed control at 200 ppm [3] is reported as ≥ 80%.
In the case of `O=C(NCc1ccc(-c2noc(C(F)(F)F)n2)cn1)c1ccccc1Cl` [Compound 1.44, 2-chloro-N-[[5-[5-(trifluoromethyl)-1,2,4-oxadiazol-3-yl]-2-pyridyl]methyl]benzamide], the pest or weed control at 200 ppm [1] is reported as ≥ 80%, the pest or weed control at 200 ppm [3] is reported as ≥ 80% and the inhibition of growth at 20 ppm [2] is reported as ≥ 80%.
`O=C(NCc1ccc(-c2noc(C(F)(F)F)n2)cn1)C1CC1` [Compound 1.45, N-[[5-[5-(trifluoromethyl)-1,2,4-oxadiazol-3-yl]-2-pyridyl]methyl] cyclopropanecarboxamide] was tested, and the pest or weed control at 200 ppm [1] was ≥ 80%, the pest or weed control at 200 ppm [3] was ≥ 80% and the inhibition of growth at 20 ppm [2] was ≥ 80%.
`O=C(NCc1ccc(-c2noc(C(F)(F)F)n2)cn1)C1CCCO1` (centres unmarked) [Compound 1.46, N-[[5-[5-(trifluoromethyl)-1,2,4-oxadiazol-3-yl]-2-pyridyl]methyl]tetrahydrofuran-2-carboxamide] was tested, and the pest or weed control at 200 ppm [1] was ≥ 80%, the pest or weed control at 200 ppm [3] was ≥ 80% and the inhibition of growth at 20 ppm [2] was ≥ 80%.
For `O=C(NCc1ccc(-c2noc(C(F)(F)F)n2)cc1F)C1CC1` [Compound 1.47, N-[[2-fluoro-4-[5-(trifluoromethyl)-1,2,4-oxadiazol-3-yl]phenyl]methyl] cyclopropanecarboxamide], the pest or weed control at 200 ppm [1] was ≥ 80%, the pest or weed control at 200 ppm [3] was ≥ 80% and the inhibition of growth at 20 ppm [2] was ≥ 80%.
In the case of `O=C(NCc1ccc(-c2noc(C(F)(F)F)n2)cc1Cl)C1CCCO1` (centres unmarked) [Compound 1.50, N-[[2-chloro-4-[5-(trifluoromethyl)-1,2,4-oxadiazol-3-yl]phenyl]methyl]tetrahydrofuran-2-carboxamide], the pest or weed control at 200 ppm [1] is reported as ≥ 80%, the pest or weed control at 200 ppm [3] is reported as ≥ 80% and the inhibition of growth at 20 ppm [2] is reported as ≥ 80%.
`O=C(NCc1ccc(-c2noc(C(F)(F)F)n2)cc1F)C1CCC1` [Compound 1.63, N-[[2-fluoro-4-[5-(trifluoromethyl)-1,2,4-oxadiazol-3-yl]phenyl]methyl] cyclobutanecarboxamide] was tested, and the pest or weed control at 200 ppm [1] was ≥ 80%, the pest or weed control at 200 ppm [3] was ≥ 80% and the inhibition of growth at 20 ppm [2] was ≥ 80%.
For `O=C(NCc1ccc(-c2noc(C(F)(F)F)n2)c(F)c1)C1CCOC1` (centres unmarked) [Compound 1.68, N-[[3-fluoro-4-[5-(trifluoromethyl)-1,2,4-oxadiazol-3-yl]phenyl]methyl] tetrahydrofuran-3-carboxamide], the pest or weed control at 200 ppm [1] was ≥ 80%, the pest or weed control at 200 ppm [3] was ≥ 80% and the inhibition of growth at 20 ppm [2] was ≥ 80%.
With `O=C(NCc1ccc(-c2noc(C(F)(F)F)n2)cc1F)C1CCOC1` (centres unmarked) [Compound 1.70, N-[[2-fluoro-4-[5-(trifluoromethyl)-1,2,4-oxadiazol-3-yl]phenyl]methyl] tetrahydrofuran-3-carboxamide] the pest or weed control at 200 ppm [1] was ≥ 80%, the pest or weed control at 200 ppm [3] was ≥ 80% and the inhibition of growth at 20 ppm [2] was ≥ 80%.
`CC1(C(=O)NCc2ccc(-c3noc(C(F)(F)F)n3)cc2F)COC1` [Compound 1.71, N-[[2-fluoro-4-[5-(trifluoromethyl)-1,2,4-oxadiazol-3-yl]phenyl]methyl]-3-methyl-oxetane-3-carboxamide] was tested, and the pest or weed control at 200 ppm [1] was ≥ 80%, the pest or weed control at 200 ppm [3] was ≥ 80% and the inhibition of growth at 20 ppm [2] was ≥ 80%.
For `CC1CC1C(=O)NCc1ccc(-c2noc(C(F)(F)F)n2)c(F)c1F` (centres unmarked) [Compound 1.77, N-[[2,3-difluoro-4-[5-(trifluoromethyl)-1,2,4-oxadiazol-3-yl]phenyl]methyl]-2-methyl-cyclopropanecarboxamide], the pest or weed control at 200 ppm [1] was ≥ 80%, the pest or weed control at 200 ppm (Phakopsora pachyrhizi) was ≥ 80% and the inhibition of growth at 20 ppm [2] was ≥ 80%.
`O=C(NCc1ccc(-c2noc(C(F)(F)F)n2)c(F)c1F)C1CCOC1` (centres unmarked) [Compound 1.83, N-[[2,3-difluoro-4-[5-(trifluoromethyl)-1,2,4-oxadiazol-3-yl]phenyl]methyl] tetrahydrofuran-3-carboxamide] was tested, and the pest or weed control at 200 ppm [1] was ≥ 80%, the pest or weed control at 200 ppm [3] was ≥ 80% and the inhibition of growth at 20 ppm [2] was ≥ 80%.
In the case of `CC1(C(=O)NCc2ccc(-c3noc(C(F)(F)F)n3)c(F)c2F)COC1` [Compound 1.85, N-[[2,3-difluoro-4-[5-(trifluoromethyl)-1,2,4-oxadiazol-3-yl]phenyl]methyl]-3-methyl-oxetane-3-carboxamide], the pest or weed control at 200 ppm [1] is reported as ≥ 80%, the pest or weed control at 200 ppm [3] is reported as ≥ 80% and the inhibition of growth at 20 ppm [2] is reported as ≥ 80%.
`O=C(NCc1ccc(-c2noc(C(F)(F)F)n2)cn1)C1CC1(F)F` (centres unmarked) [Compound 1.86, 2,2-difluoro-N-[[5-[5-(trifluoromethyl)-1,2,4-oxadiazol-3-yl]-2-pyridyl]methyl] cyclopropanecarboxamide] was tested, and the pest or weed control at 200 ppm [1] was ≥ 80%, the pest or weed control at 200 ppm [3] was ≥ 80% and the inhibition of growth at 20 ppm [2] was ≥ 80%.
In the case of `O=C(CC1CC1)NCc1ccc(-c2noc(C(F)(F)F)n2)cn1` [Compound 1.87, 2-cyclopropyl-N-[[5-[5-(trifluoromethyl)-1,2,4-oxadiazol-3-yl]-2-pyridyl]methyl]acetamide], the pest or weed control at 200 ppm [1] is reported as ≥ 80%, the pest or weed control at 200 ppm [3] is reported as ≥ 80% and the inhibition of growth at 20 ppm [2] is reported as ≥ 80%.
In the case of `O=C(NCc1ccc(-c2noc(C(F)(F)F)n2)cn1)C1CCC1` [Compound 1.88, N-[[5-[5-(trifluoromethyl)-1,2,4-oxadiazol-3-yl]-2-pyridyl]methyl] cyclobutanecarboxamide], the pest or weed control at 200 ppm [1] is reported as ≥ 80%, the pest or weed control at 200 ppm [3] is reported as ≥ 80% and the inhibition of growth at 20 ppm [2] is reported as ≥ 80%.
For `CC1CC1C(=O)NCc1ccc(-c2noc(C(F)(F)F)n2)cn1` (centres unmarked) [Compound 1.89, 2-methyl-N-[[5-[5-(trifluoromethyl)-1,2,4-oxadiazol-3-yl]-2-pyridyl]methyl] cyclopropanecarboxamide], the pest or weed control at 200 ppm [1] was ≥ 80%, the pest or weed control at 200 ppm [3] was ≥ 80% and the inhibition of growth at 20 ppm [2] was ≥ 80%.
In the case of `CC1(C(=O)NCc2ccc(-c3noc(C(F)(F)F)n3)cn2)CC1` [Compound 1.90, 1-methyl-N-[[5-[5-(trifluoromethyl)-1,2,4-oxadiazol-3-yl]-2-pyridyl]methyl] cyclopropanecarboxamide], the pest or weed control at 200 ppm [1] is reported as ≥ 80%, the pest or weed control at 200 ppm [3] is reported as ≥ 80% and the inhibition of growth at 20 ppm [2] is reported as ≥ 80%.
